Article PMC4393269, “Carvacrol Codrugs: A New Approach in the Antimicrobial Plan” (PLoS ONE, 2015)
≈ marks a conversion by molar mass, not a printed value. Read-outs that look alike come from different tables or passages of the source.

Legend:
PAMPA-GI permeability = format: in vitro ADME; details: for Papp at 16 h: 16 h of incubation (table title), 2% Tween 80, 10% MeOH, read-out: PAMPA-GI permeability P e
Protocol: Parallel Artificial Membrane Permeability Assay (PAMPA) was used to measure the permeability coefficient (P e) of codrug 4 through the artificial membrane to predict oral absorption. The carvacrol codrug 4 permeability was determined using PAMPA-GI protocols already developed. Briefly, donor and acceptor plates were assembled to form a “sandwich” and incubated at room temperature for 18 h.
P e can be calculated from the equation below: Pe={VD⋅VA/(VD+VA)⋅A⋅t⋅ln(1−[drug]acceptor/[drug]equilibrium)} (1) where P e is the effective permeability coefficient (cm × s^-1), V D is the volume of the donor compartment (0.15 cm^3) and V A is the volume of the acceptor compartment (0.30 cm^3), A is the effective filter area (0.28 cm^2), t is the incubation time for the assay (s), [drug] acceptor is the concentration of the compound in the acceptor compartment at assay completion, and [drug] equilibrium is the concentration of the compound at theoretical equilibrium.

[1] = Kinetics of chemical hydrolysis in buffers; format: physicochemical; details: for half-life at 9.1 µM: read-out: t½ (converted)
Protocol: (§1) The HPLC system consisted of a Waters 600 HPLC pump (Waters Corporation, Milford, MA, USA), equipped with a Waters 2996 photodiode array detector. The column was a Kinetex RP-C8 column (3.0 x 150 mm, 5 μm). The mobile phase consisted of 0.1% TFA in acetonitrile/0.1% TFA in 95% H2O and 5% acetonitrile 50:50, under isocratic conditions at a flow rate of 1 mL/min. The UV detector was set at a length of 220 nm.
[…] Reactions were initiated by adding 1 mL of 10^-4 M stock solution (in acetonitrile) of the compound to 10 mL of the appropriate aqueous buffer solution, containing 20% acetonitrile. At appropriate time intervals, samples of 20 μL were withdrawn and analyzed by HPLC. Pseudo-first-order rate constants (kobs) for the hydrolysis of the compounds were then calculated from the slopes of the linear plots of log (% residual compound) against time. The experiments were run in triplicate and the mean values of the rate constants were calculated.

[2] = test system: S. epidermidis ATCC 35984; assay: Broth microdilution MIC/MBC on planktonic cells; format: cell-based; details: Staphylococcus epidermidis, ATCC35984
Protocol: (§2) Two Gram-positive (S. aureus ATCC 29213 and S. epidermidis ATCC 35984) and two Gram-negative (E. coli ATCC 8739 and P. aeruginosa ATCC 9027) strains, and one fungal strain (C. albicans ATCC 10231) were used for the detection of antibacterial activity of carvacrol, NAC, Ac-Cys(Allyl)-OH, and carvacrol codrugs 1–10. All tested compounds were dissolved in 20% DMSO to prepare the stock solution (100 mg/mL). The final concentration of DMSO in each well appeared to be not toxic for all studied microorganisms, as confirmed by the solvent control test included in the study.
(§3) The effects of carvacrol codrugs 1–10 and reference compounds on planktonic cells were evaluated by Minimum Inhibitory Concentration (MIC) and Minimum Bactericidal Concentration (MBC) determination using the broth microdilution method according to EUCAST guidelines. Bacterial suspensions, grown in Mueller–Hinton Broth (MHB) at logarithmic phase, were incubated on microtiter plates at a concentration of 5 x 10^5 CFU/mL, with several dilutions (0.07–40 mg/mL) for 24 h at 37°C. The MIC was defined as the lowest concentration of substances giving a complete inhibition of visible growth in comparison with a control well, and the MBC was determined as the lowest concentration at which no bacterial growth occurred on Mueller–Hinton Agar plates.
(§4) Data were obtained from at least three independent experiments performed in duplicate. The susceptibility of the bacterial strains against ciprofloxacin was used as an internal standard during MIC determinations.

E. coli ATCC 8739 [3] = assay: Broth microdilution MIC/MBC on planktonic cells; format: cell-based; details: Escherichia coli, ATCC8739
Protocol: as §2, §3, §4

P. aeruginosa ATCC 9027 = assay: Broth microdilution MIC/MBC on planktonic cells; format: cell-based; details: Pseudomonas aeruginosa, ATCC9027
Protocol: as §2, §3, §4

S. aureus ATCC 29213 [4] = assay: Broth microdilution MIC/MBC on planktonic cells; format: cell-based; details: Staphylococcus aureus, ATCC29213
Protocol: as §2, §3, §4

C. albicans ATCC 10231 = assay: Transmission electron microscopy; format: cell-based; details: 12.5 mg/mL for 3 h
Description: (§5) For transmission electron microscopy, microrganisms were fixed with 2.5% glutaraldehyde in 0.1 M cacodylate buffer, postfixed with 1% OsO4, dehydrated in graded ethanol and embedded in Epon 812. Ultrathin sections (60 to 80 nm) were then mounted on 200-mesh copper grids and stained with uranyl acetate and lead citrate for ultrastructural observation. Sections were photographed using a Philips 268 D electron microscope (FEI).

E. coli ATCC 8739 [5] = assay: Transmission electron microscopy; format: cell-based; details: 12.5 mg/mL for 3 h
Description: as §5

S. aureus ATCC 29213 [6] = assay: Transmission electron microscopy; format: cell-based; details: 12.5 mg/mL for 3 h
Description: as §5

Water solubility (HPLC) = format: physicochemical; details: thermodynamic from solid, room temperature, mean of three experiments (SD)
Protocol: as §1, with “nm. […] Then the mixture was filtered using a Millipore filter (0.45 μm) and the concentration of the compound in its saturated solution was determined by HPLC analysis.” for “nm.”

Papp at 18 h (PAMPA-GI permeability; at each value of pH (5.0, 6.5, 7.4), after 18 h of incubation, read-out: PAMPA-GI permeability P e (bound)): > 1 ×10⁻⁶ cm/s | Papp at 16 h (PAMPA-GI permeability; pH 5.0 in donor and acceptor): 8.6 ×10⁻⁶ cm/s | Papp at 16 h (PAMPA-GI permeability; pH 6.5 in donor and acceptor): 17 ×10⁻⁶ cm/s | Papp at 16 h (PAMPA-GI permeability; pH 7.4 in donor and acceptor): 2.34 ×10⁻⁶ cm/s | half-life at 9.1 µM ([1]; aqueous buffer pH 5.0, pH 5.0, 37°C): 62.1 h | half-life at 9.1 µM ([1]; hydrochloric acid buffer pH 1.3 (non-enzymatic SGF), pH 1.3, 37°C): 75.4 h | kobs ([1]; pH 1.3, 37°C): 0.009 (± 0.001) h^-1 | kobs ([1]; pH 7.4, 37°C): 0.030 (± 0.001) h^-1 | half-life at 9.1 µM ([1]; phosphate buffer pH 7.4 (non-enzymatic SIF), pH 7.4, 37°C): 22.9 h | MIC ([2]; S. epidermidis ATCC 35984, 24 h at 37°C, read-out: MIC): 2500 µg/mL (≈ 7.45 mM) | MIC (E. coli ATCC 8739 [3]; E. coli ATCC 8739, 24 h at 37°C, read-out: MIC): 2500 µg/mL (≈ 7.45 mM) | MIC (P. aeruginosa ATCC 9027; P. aeruginosa ATCC 9027, 24 h at 37°C, read-out: MIC): 5000 µg/mL (≈ 14.9 mM) | MIC (S. aureus ATCC 29213 [4]; S. aureus ATCC 29213, 24 h at 37°C, read-out: MIC): 2500 µg/mL (≈ 7.45 mM) | solubility at 15 min (Water solubility (HPLC)): 150 µg/mL (≈ 0.447 mM)
Compound: C=CCSC[C@H](NC(C)=O)C(=O)Oc1cc(C(C)C)ccc1C [codrug 4, N-Ac-Cys(Allyl)-CAR]
MBC ([2]; S. epidermidis ATCC 35984, read-out: MBC): 2500 µg/mL (≈ 7.45 mM) | MBC (E. coli ATCC 8739 [3]; E. coli ATCC 8739, read-out: MBC): 2500 µg/mL (≈ 7.45 mM) | MBC (P. aeruginosa ATCC 9027; P. aeruginosa ATCC 9027, read-out: MBC): 10000 µg/mL (≈ 29.8 mM) | MBC (S. aureus ATCC 29213 [4]; S. aureus ATCC 29213, read-out: MBC): 2500 µg/mL (≈ 7.45 mM) | cell morphology by TEM (C. albicans ATCC 10231): disintegration of the membranes | cell morphology by TEM (E. coli ATCC 8739 [5]): alteration of outer membrane | cell morphology by TEM (S. aureus ATCC 29213 [6]): induced abnormal septum formation with irregular features
